Measurements published in patent US4471131A, “Novel silyl esters of N-phosphonomethylglycine” (Monsanto Company, priority 1983, dated 1984).

How the values were obtained:
Experiment in all cases: post-emergence herbicidal activity, greenhouse
Type in all cases: in vivo
[1] = tested on: Cocklebur
Procedure, shortened: (§1)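 Plants grown from seed or vegetative propagules in topsoil pans on a greenhouse sand bench, watered from below, were atomizer-sprayed at two to three weeks of age. The spray carried about 0.4% by weight emulsifier. Injury relative to unsprayed control pans was scored approximately two and four weeks after treatment.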

[2] = tested on: Canada Thistle; conditions: Table II, 11.2 kg/h, formulated immediately prior to treatment
Procedure, shortened: as §1

[3] = tested on: Downy Brome
Procedure, shortened: as §1

[4] = tested on: Rice; conditions: Table III, 2 WAT
Procedure, shortened: as §1

[5] = tested on: Common Lambsquarters
Procedure, shortened: as §1

[6] = tested on: Wild Buckwheat; conditions: Table III, 2 WAT
Procedure, shortened: as §1

[7] = tested on: Sugar Beet; conditions: Table III, 2 WAT
Procedure, shortened: as §1

[8] = tested on: Velvetleaf
Procedure, shortened: as §1

[9] = tested on: Yellow Nutsedge; conditions: Table II, 11.2 kg/h, formulated immediately prior to treatment
Procedure, shortened: (§2)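 Plants grown two to three weeks in greenhouse soil pans were atomizer-sprayed with test chemical in spray containing about 0.4% emulsifier, at the listed rates. Injury relative to unsprayed controls observed at approximately two and four weeks after treatment.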

[10] = tested on: Barnyardgrass
Procedure, shortened: as §1

[11] = tested on: Johnsongrass; conditions: Table II, 11.2 kg/h, formulated immediately prior to treatment
Procedure, shortened: as §1

[12] = tested on: Morningglory
Procedure, shortened: as §1

[13] = tested on: Large Crabgrass; conditions: Table III, 2 WAT
Procedure, shortened: as §1

[14] = tested on: Hemp Sesbania; conditions: Table III, 2 WAT
Procedure, shortened: as §1

[15] = tested on: Quackgrass; conditions: Table II, 11.2 kg/h, formulated immediately prior to treatment
Procedure, shortened: as §2

[16] = tested on: Soybean; conditions: Table III, 2 WAT
Procedure, shortened: as §1

[17] = tested on: Pennsylvania Smartweed
Procedure, shortened: as §1

[18] = tested on: Panicum Spp; conditions: Table III, 2 WAT
Procedure, shortened: as §1

[19] = Table II, 2 WAT, 11.2 kg/h, formulated immediately prior to treatment
[20] = Table II, 4 WAT, 11.2 kg/h, formulated immediately prior to treatment

CC(C)OC(=O)CNCP(=O)(O[Si](c1ccccc1)(c1ccccc1)C(C)(C)C)O[Si](c1ccccc1)(c1ccccc1)C(C)(C)C [Ex. 1]
Plant Response Index (B) [1, 19]: 1 (25-49% inhibition) | Plant Response Index (B) [1, 20]: 1 (25-49% inhibition) | Plant Response Index (B) ([1]; Table III, 2 WAT, 1.1 kg/h): 0 (0-24% inhibition) | Plant Response Index (B) ([1]; Table III, 2 WAT, 5.6 kg/h): 2 (50-74% inhibition) | Plant Response Index (A) ([2]; 2 WAT): 0 (0-24% inhibition) | Plant Response Index (A) ([2]; 4 WAT): 1 (25-49% inhibition) | Plant Response Index (J) [3, 19]: 1 (25-49% inhibition) | Plant Response Index (J) [3, 20]: 1 (25-49% inhibition) | Plant Response Index (J) ([3]; Table III, 2 WAT, 1.1 kg/h): 0 (0-24% inhibition) | Plant Response Index (J) ([3]; Table III, 2 WAT, 5.6 kg/h): 3 (75-99% inhibition) | Plant Response Index (O) ([4]; 1.1 kg/h): 0 (0-24% inhibition) | Plant Response Index (O) ([4]; 5.6 kg/h): 3 (75-99% inhibition) | Plant Response Index (E) [5, 19]: 0 (0-24% inhibition) | Plant Response Index (E) [5, 20]: 0 (0-24% inhibition) | Plant Response Index (E) ([5]; Table III, 2 WAT, 1.1 kg/h): 0 (0-24% inhibition) | Plant Response Index (E) ([5]; Table III, 2 WAT, 5.6 kg/h): 3 (75-99% inhibition) | Plant Response Index (Q) ([6]; 1.1 kg/h): 0 (0-24% inhibition) | Plant Response Index (Q) ([6]; 5.6 kg/h): 3 (75-99% inhibition) | Plant Response Index (M) ([7]; 1.1 kg/h): 1 (25-49% inhibition) | Plant Response Index (M) ([7]; 5.6 kg/h): 3 (75-99% inhibition) | Plant Response Index (C) [8, 19]: 0 (0-24% inhibition) | Plant Response Index (C) [8, 20]: 1 (25-49% inhibition) | Plant Response Index (C) ([8]; Table III, 2 WAT, 1.1 kg/h): 0 (0-24% inhibition) | Plant Response Index (C) ([8]; Table III, 2 WAT, 5.6 kg/h): 2 (50-74% inhibition) | Plant Response Index (G) ([9]; 2 WAT): 1 (25-49% inhibition) | Plant Response Index (G) ([9]; 4 WAT): 2 (50-74% inhibition) | Plant Response Index (K) [10, 19]: 2 (50-74% inhibition) | Plant Response Index (K) [10, 20]: 3 (75-99% inhibition) | Plant Response Index (K) ([10]; Table III, 2 WAT, 1.1 kg/h): 1 (25-49% inhibition) | Plant Response Index (K) ([10]; Table III, 2 WAT, 5.6 kg/h): 4 (100% inhibition) | Plant Response Index (I) ([11]; 2 WAT): 0 (0-24% inhibition) | Plant Response Index (I) ([11]; 4 WAT): 2 (50-74% inhibition) | Plant Response Index (D) [12, 19]: 1 (25-49% inhibition) | Plant Response Index (D) [12, 20]: 2 (50-74% inhibition) | Plant Response Index (D) ([12]; Table III, 2 WAT, 1.1 kg/h): 0 (0-24% inhibition) | Plant Response Index (D) ([12]; Table III, 2 WAT, 5.6 kg/h): 2 (50-74% inhibition) | Plant Response Index (T) ([13]; 1.1 kg/h): 2 (50-74% inhibition) | Plant Response Index (T) ([13]; 5.6 kg/h): 4 (100% inhibition) | Plant Response Index (R) ([14]; 1.1 kg/h): 0 (0-24% inhibition) | Plant Response Index (R) ([14]; 5.6 kg/h): 2 (50-74% inhibition) | Plant Response Index (H) ([15]; 2 WAT): 0 (0-24% inhibition) | Plant Response Index (H) ([15]; 4 WAT): 1 (25-49% inhibition) | Plant Response Index (L) ([16]; 1.1 kg/h): 0 (0-24% inhibition) | Plant Response Index (L) ([16]; 5.6 kg/h): 1 (25-49% inhibition) | Plant Response Index (F) [17, 19]: 3 (75-99% inhibition) | Plant Response Index (F) [17, 20]: 3 (75-99% inhibition) | Plant Response Index (F) ([17]; Table III, 2 WAT, 1.1 kg/h): 0 (0-24% inhibition) | Plant Response Index (F) ([17]; Table III, 2 WAT, 5.6 kg/h): 3 (75-99% inhibition) | Plant Response Index (S) ([18]; 1.1 kg/h): 0 (0-24% inhibition) | Plant Response Index (S) ([18]; 5.6 kg/h): 3 (75-99% inhibition)
